Results published in PubChem BioAssay AID1963844 (Molecular Pharmacology Branch, DTP, NCI, 2024).
pIC50: −log10 of the molar value.

Test system: 422866-222-R5-J1-PDC complex spheroid viability
Experiment: Anticancer human tumor 422866-222-R5-J1-PDC patient-derived pancreatic adenocarcinoma cell line growth inhibition [POLQ]
Conditions: for pIC50: curve of first compound; for viability, T/C: stronger effect = lower value
Summary of the method: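 Complex spheroid viability model combining PDC tumour cells with endothelial (HUVEC) and MSC stromal cells. Novobiocin, ART-558 or RP6685 were tested singly and in combination with standard and investigational anticancer drugs. Each was titrated in half-log steps from near clinical Cmax, or from 10 microM where Cmax was unknown.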

[1] = second compound 0.0316 µM, first compound 0.0316 µM
[2] = second compound 0.0316 µM, first compound 0.1 µM
[3] = second compound 0.0316 µM, first compound 0.316 µM
[4] = second compound 0.0316 µM, first compound 1 µM
[5] = second compound 0.0316 µM, first compound 3.16 µM
[6] = second compound 0.0316 µM, first compound 10 µM
[7] = second compound 0.1 µM, first compound 0.0316 µM
[8] = second compound 0.1 µM, first compound 0.1 µM
[9] = second compound 0.1 µM, first compound 0.316 µM
[10] = second compound 0.1 µM, first compound 1 µM
[11] = second compound 0.1 µM, first compound 3.16 µM
[12] = second compound 0.1 µM, first compound 10 µM
[13] = second compound 0.316 µM, first compound 0.0316 µM
[14] = second compound 0.316 µM, first compound 0.1 µM
[15] = second compound 0.316 µM, first compound 0.316 µM
[16] = second compound 0.316 µM, first compound 1 µM
[17] = second compound 0.316 µM, first compound 3.16 µM
[18] = second compound 0.316 µM, first compound 10 µM
[19] = second compound 1 µM, first compound 0.0316 µM
[20] = second compound 1 µM, first compound 0.1 µM
[21] = second compound 1 µM, first compound 0.316 µM
[22] = second compound 1 µM, first compound 1 µM
[23] = second compound 1 µM, first compound 3.16 µM
[24] = second compound 1 µM, first compound 10 µM
[25] = second compound 3.16 µM, first compound 0.0316 µM
[26] = second compound 3.16 µM, first compound 0.1 µM
[27] = second compound 3.16 µM, first compound 0.316 µM
[28] = second compound 3.16 µM, first compound 1 µM
[29] = second compound 3.16 µM, first compound 3.16 µM
[30] = second compound 3.16 µM, first compound 10 µM
[31] = second compound 10 µM, first compound 0.0316 µM
[32] = second compound 10 µM, first compound 0.1 µM
[33] = second compound 10 µM, first compound 0.316 µM
[34] = second compound 10 µM, first compound 1 µM
[35] = second compound 10 µM, first compound 3.16 µM
[36] = second compound 10 µM, first compound 10 µM
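Further: spheroids exposed to compounds for one week before readout.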
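Wherever viability, T/C is given: percent of DMSO vehicle wells luminescence so 100% = untreated viability.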

SMILES: CCCS(=O)(=O)Nc1ccc(F)c(C(=O)c2c[nH]c3ncc(-c4ccc(Cl)cc4)cc23)c1F + Nc1ccc(C#CCN(C(=O)Cc2ncc(C(F)(F)F)cc2C(F)(F)F)c2ccc(F)cc2)nn1
- pIC50 (second compound 0.0316 µM): < 5.00
- pIC50 (second compound 0.1 µM): < 5.00
- pIC50 (second compound 0.316 µM): < 5.00
- pIC50 (second compound 1 µM): < 5.00
- pIC50 (second compound 3.16 µM): < 5.00
- pIC50 (second compound 10 µM): < 5.00
- viability, T/C [1]: 101%
- viability, T/C [2]: 103%
- viability, T/C [3]: 107%
- viability, T/C [4]: 181%
- viability, T/C [5]: 197%
- viability, T/C [6]: 118%
- viability, T/C [7]: 115%
- viability, T/C [8]: 107%
- viability, T/C [9]: 115%
- viability, T/C [10]: 182%
- viability, T/C [11]: 173%
- viability, T/C [12]: 118%
- viability, T/C [13]: 105%
- viability, T/C [14]: 96.4%
- viability, T/C [15]: 113%
- viability, T/C [16]: 162%
- viability, T/C [17]: 164%
- viability, T/C [18]: 129%
- viability, T/C [19]: 103%
- viability, T/C [20]: 112%
- viability, T/C [21]: 125%
- viability, T/C [22]: 133%
- viability, T/C [23]: 193%
- viability, T/C [24]: 113%
- viability, T/C [25]: 107%
- viability, T/C [26]: 124%
- viability, T/C [27]: 138%
- viability, T/C [28]: 127%
- viability, T/C [29]: 153%
- viability, T/C [30]: 114%
- viability, T/C [31]: 125%
- viability, T/C [32]: 138%
- viability, T/C [33]: 166%
- viability, T/C [34]: 154%
- viability, T/C [35]: 166%
- viability, T/C [36]: 96.7%

SMILES: CNCc1ccc(-c2[nH]c3cc(F)cc4c3c2CCNC4=O)cc1 + Nc1ccc(C#CCN(C(=O)Cc2ncc(C(F)(F)F)cc2C(F)(F)F)c2ccc(F)cc2)nn1
- pIC50 (second compound 0.0316 µM): < 5.00
- pIC50 (second compound 0.1 µM): < 5.00
- pIC50 (second compound 0.316 µM): < 5.00
- pIC50 (second compound 1 µM): < 5.00
- pIC50 (second compound 3.16 µM): < 5.00
- pIC50 (second compound 10 µM): < 5.00
- viability, T/C [1]: 78.7%
- viability, T/C [2]: 93.6%
- viability, T/C [3]: 77.7%
- viability, T/C [4]: 104%
- viability, T/C [5]: 78.8%
- viability, T/C [6]: 76.6%
- viability, T/C [7]: 106%
- viability, T/C [8]: 87.5%
- viability, T/C [9]: 92.4%
- viability, T/C [10]: 107%
- viability, T/C [11]: 80.6%
- viability, T/C [12]: 82.8%
- viability, T/C [13]: 87.4%
- viability, T/C [14]: 109%
- viability, T/C [15]: 97.1%
- viability, T/C [16]: 101%
- viability, T/C [17]: 72.1%
- viability, T/C [18]: 79.5%
- viability, T/C [19]: 89.4%
- viability, T/C [20]: 89.9%
- viability, T/C [21]: 93%
- viability, T/C [22]: 91.9%
- viability, T/C [23]: 73.5%
- viability, T/C [24]: 63%
- viability, T/C [25]: 100%
- viability, T/C [26]: 96.4%
- viability, T/C [27]: 105%
- viability, T/C [28]: 89.7%
- viability, T/C [29]: 87.4%
- viability, T/C [30]: 81.9%
- viability, T/C [31]: 96.1%
- viability, T/C [32]: 109%
- viability, T/C [33]: 89.8%
- viability, T/C [34]: 64.7%
- viability, T/C [35]: 79%
- viability, T/C [36]: 69%

SMILES: COc1ccc([C@@H](O)c2cc(-c3ncnc4cc(N5CCOCC5)ccc34)c(F)cc2Cl)nn1 + Nc1ccc(C#CCN(C(=O)Cc2ncc(C(F)(F)F)cc2C(F)(F)F)c2ccc(F)cc2)nn1
- pIC50 (second compound 0.0316 µM): 5.82
- pIC50 (second compound 0.1 µM): 5.59
- pIC50 (second compound 0.316 µM): 5.56
- pIC50 (second compound 1 µM): 5.71
- pIC50 (second compound 3.16 µM): 5.89
- pIC50 (second compound 10 µM): 5.80
- viability, T/C [1]: 81.2%
- viability, T/C [2]: 89.7%
- viability, T/C [3]: 70.9%
- viability, T/C [4]: 55.3%
- viability, T/C [5]: 42.4%
- viability, T/C [6]: 34.8%
- viability, T/C [7]: 104%
- viability, T/C [8]: 81.8%
- viability, T/C [9]: 75.1%
- viability, T/C [10]: 59.8%
- viability, T/C [11]: 46.2%
- viability, T/C [12]: 39.2%
- viability, T/C [13]: 110%
- viability, T/C [14]: 88.5%
- viability, T/C [15]: 73.1%
- viability, T/C [16]: 70.6%
- viability, T/C [17]: 46.2%
- viability, T/C [18]: 33.1%
- viability, T/C [19]: 94.2%
- viability, T/C [20]: 87.4%
- viability, T/C [21]: 79.8%
- viability, T/C [22]: 62.6%
- viability, T/C [23]: 40.2%
- viability, T/C [24]: 29.4%
- viability, T/C [25]: 95.9%
- viability, T/C [26]: 89.9%
- viability, T/C [27]: 72.9%
- viability, T/C [28]: 49.1%
- viability, T/C [29]: 47.6%
- viability, T/C [30]: 34.6%
- viability, T/C [31]: 110%
- viability, T/C [32]: 100%
- viability, T/C [33]: 82.5%
- viability, T/C [34]: 60.3%
- viability, T/C [35]: 35.1%
- viability, T/C [36]: 31.4%

SMILES: COc1cccc(OCCCN)c1-c1cc(Nc2cnc(C#N)cn2)n[nH]1 + Nc1ccc(C#CCN(C(=O)Cc2ncc(C(F)(F)F)cc2C(F)(F)F)c2ccc(F)cc2)nn1
- pIC50 (second compound 0.0316 µM): 8.14
- pIC50 (second compound 0.1 µM): 8.17
- pIC50 (second compound 0.316 µM): 8.24
- pIC50 (second compound 1 µM): 8.23
- pIC50 (second compound 3.16 µM): 8.23
- pIC50 (second compound 10 µM): 8.13
- viability, T/C (second compound 0.0316 µM, first compound 0.00316 µM): 82.4%
- viability, T/C (second compound 0.0316 µM, first compound 0.01 µM): 37.4%
- viability, T/C [1]: 33.4%
- viability, T/C [2]: 30.5%
- viability, T/C [3]: 35.9%
- viability, T/C [4]: 44.1%
- viability, T/C (second compound 0.1 µM, first compound 0.00316 µM): 62.6%
- viability, T/C (second compound 0.1 µM, first compound 0.01 µM): 45.9%
- viability, T/C [7]: 33.6%
- viability, T/C [8]: 32.8%
- viability, T/C [9]: 36.8%
- viability, T/C [10]: 54.3%
- viability, T/C (second compound 0.316 µM, first compound 0.00316 µM): 60.3%
- viability, T/C (second compound 0.316 µM, first compound 0.01 µM): 40.4%
- viability, T/C [13]: 36.1%
- viability, T/C [14]: 38.4%
- viability, T/C [15]: 27.1%
- viability, T/C [16]: 38%
- viability, T/C (second compound 1 µM, first compound 0.00316 µM): 68.9%
- viability, T/C (second compound 1 µM, first compound 0.01 µM): 33.9%
- viability, T/C [19]: 35%
- viability, T/C [20]: 38.6%
- viability, T/C [21]: 30.6%
- viability, T/C [22]: 29.4%
- viability, T/C (second compound 3.16 µM, first compound 0.00316 µM): 59.2%
- viability, T/C (second compound 3.16 µM, first compound 0.01 µM): 42.8%
- viability, T/C [25]: 38.5%
- viability, T/C [26]: 29%
- viability, T/C [27]: 32.2%
- viability, T/C [28]: 44.8%
- viability, T/C (second compound 10 µM, first compound 0.00316 µM): 76.1%
- viability, T/C (second compound 10 µM, first compound 0.01 µM): 40.1%
- viability, T/C [31]: 37.4%
- viability, T/C [32]: 36.5%
- viability, T/C [33]: 29%
- viability, T/C [34]: 38.6%
